# Laboratory results as given in patent US20250084112A1, “Chemical Compounds Useful for Inhibiting Nav1.8 Voltage-Gated Sodium Channels and Treating Nav1.8 Mediated Diseases” (GlaxoSmithKline Intellectual Property Development Limited, priority 2021, published 2025).
# Where two headings read alike, the source gives them in different places.
# Assays:
# [1] = Kinetic solubility measurement using Charged Aerosol Detector (CAD); format: physicochemical; details: phosphate buffered saline (PBS) pH 7.4, aqueous buffer, PBS pH 7.4, 1 hour at room temperature, from DMSO stock
# Method: Kinetic solubility measurement using Charged Aerosol Detector (CAD). The aqueous kinetic solubility at pH 7.4 was determined by measuring the concentration of solute in solution after precipitation from DMSO stock solution. The DMSO stock solution was diluted 20-fold with phosphate buffered saline (PBS) pH 7.4 and the solubility of the compound was measured after 1 hour equilibration at room temperature by HPLC-CAD. Calibration standards of Ketoconazole and Primidone were prepared by serial dilutions in DMSO at concentrations ranging from 0.016 to 4.5 mg/ml to produce the calibration curve used to determine the solubility of the compounds as previously described in Max W. Robinson et al, Use of Calculated Physicochemical Properties to Enhance Quantitative Response When Using Charged Aerosol Detection, Anal. Chem., 2017, 89 (3), pp 1772-1777, which is herein incorporated by reference.
# [2] = target: human Nav1.8 (Homo sapiens (Human), UniProt Q9Y5Y9); experiment: QPatch 48 HTX electrophysiology, half inactivation state (V1/2) voltage protocol in HEK293-Nav1.8; format: cell-based; details: HEK293-Nav1.8, QPatch V1/2 protocol, P2 current; average if more than one run
# Method: Human embryonic kidney 293 cells (HEK293) expressing human Nav1.8, human Navβ1 and human TREK1 (HEK293-Nav1.8) were grown at 37° C., 5% CO2 in 150 cm^2 flasks. HEK293-Nav1.8 were passaged every 2-3 days into T175 cell culture flasks when confluency reached 80-90%.
# Pharmacological assessment of the compounds of the invention was performed using HEK293-Nav1.8 in combination with an assay developed on the QPatch 48 HTX electrophysiological system. HEK293-Nav1.8 were prepared on the day of use by removing culture media, washing in DPBS, adding Accutase (2 ml to cover the surface, aspirate 1 ml then 1.5 min at 37° C.) followed by addition of CHO-SFM II to stop the enzyme digestion and in order to obtain a suspension of 3×10^6 cell/mL.
# Compound was prepared in an extracellular solution of the following composition: NaCl (145 mM), KCl (4 mM), CaCl2 (2 mM), MgCl2 (2 mM), HEPES (1 mM), Glucose (10 mM), pH 7.4 with NaOH Osmolality 300 mOsM/L. The intracellular solution was used of the following composition: CsF (115 mM), CsCl (20 mM), NaCl (5 mM), EGTA (10 mM), HEPES (10 mM), Sucrose (20 mM), pH 7.2 with CsOH Osmolality 310 mOsm/L.
# Utilizing the voltage-clamp mode in the QPatch 48 HTX system a half inactivation state voltage protocol (V1/2) was used to determine pharmacological activity of compounds of the invention at Nav1.8 ion channels. A V1/2 protocol was utilized with the following voltage steps: a holding voltage of −100 mV was established followed by a 20 ms voltage step to 0 mV (P1), followed by an inactivating voltage step at −46 mV for 8 seconds, followed by a step to −100 mV for 20 ms, before a 20 ms step to 0 mV (P2) before returning to the holding voltage of −100 mV. This voltage protocol was repeated at a frequency of 0.07 Hz., current magnitude was quantified at the P2 step throughout the recording. Inhibition of the measured current amplitude with the compounds of the invention was analyzed by fitting a 6-8 point dose-response curve allowing determination of the fifty percent inhibition concentration (IC50). Within the QPatch HTX software, P2 current was normalized according to measurements made at baseline after compound and after positive reference compound and fit to the following equation: […]
# To assess current run-down over the course of the experiment vehicle-only wells were utilized and the normalized current with vehicle-only (n.IVEH) was determined. To correct the compound response for run-down, the currents were corrected according the following formula: […]
# Compounds of the invention and the corresponding parent compounds (see Table 1A for structures) were tested for activity against Nav1.8 sodium channels in the above assay in one or more experimental runs and the results are shown in Table 1 below. Potency of the compounds of the invention is reported as a pIC50 value. The pIC50 value is the negative log of the IC50 value, wherein the IC50 value is the half maximal inhibitory concentration measured in molar (M). Potency of the compounds of the invention is compared to the potency of the parent compound. For compounds tested in more than one experimental run, the pIC50 value is reported as an average.
# [3] = Rat IV/PO pharmacokinetic study (prodrug to parent conversion); format: in vivo, Han Wistar rats
# Method: An in vivo rat pharmacokinetic study was conducted to determine whether the prodrug compounds of the invention are converted to the respective parent compound upon administration. The rat pharmacokinetic study was conducted with a crossover design on two study days with a one-day recovery period between each study day. Three male, dual catheterized (femoral vein and carotid artery) Han Wistar rats were used for the study. Each rat was also implanted with a gastric catheter for oral dose administration. Rats were dosed at 1 mg/kg by a 60 minute intravenous (IV) infusion (femoral vein cannula), then subsequently oral dosed at 2 mg/kg via the gastric cannula, with 48 hours between dosing sessions. Dose solutions of the compound of Example 3 were prepared in 20% Cavitron/5% DMSO/75% water (IV) and in 6% Cavitron/5% DMSO/89% water (PO) without pH adjustment. The dose solutions were filtered using a 0.22 μ filter. The pH of the final dosing solutions was 6.0.
# During the intravenous study leg, blood samples were collected from the carotid artery catheter at target times of 15, 30, 60 (end of infusion), 65, 75, 90, 120, 240, 360, 480, 720, and 1440 minutes following the initiation of the intravenous infusion of the compound of Example 3. During the oral study leg, blood samples were collected prior to dosing and at target times of 15, 30, 60, 90, 120, 180, 240, 360, 480, 720, and 1440 minutes following oral administration. Blood samples, 100 μL, were mixed with 100 μL phosphatase inhibitor, a 50 μL aliquot of the blood and inhibitor mixture was transferred to a non-heparinized tube and stored at approximately −80° C. until analyzed. The concentrations in the filtered dose solutions were confirmed by preparing stepwise dilutions first into 50% aqueous acetonitrile with 0.1% formic acid then into heparinized male Wistar Han blood:inhibitor to achieve determined nominal concentrations. Triplicate 50 μL aliquots were removed and were frozen and stored at approximately […] until analyzed by LC-MS/MS as described below.
# LC-MS/MS was used to quantify the compound of Example 3 and the corresponding parent compound of Example 3A in the biological samples generated in the above described in vivo study. Samples were prepared by protein precipitation followed by LC-MS/MS analysis employing positive-mode ionization against a set of calibration standards for the compounds prepared in the same matrix. Pharmacokinetic parameters for the study was derived from the concentration versus time profiles. Key pharmacokinetic parameters such as AUC0-∞ (extrapolated area under the blood concentration-time curve), AUC0-t (area under the blood concentration-time curve to the last time point with quantifiable drug), Cmax (maximum concentration), Tmax (time Cmax is achieved), CL (systemic blood clearance), Vdss (steady-state volume of distribution), MRT (mean residence time), and t1/2(half-life) were determined for the compound of Example 3. The key pharmacokinetic parameters such as AUC0-∞, AUC0-t, Cmax, Tmax, MRT, and t1/2 (half-life) were determined for the parent compound Example 3A. Descriptive statistical data of pharmacokinetic parameters were calculated, including the mean and standard deviation (SD) using Microsoft Excel.
# The data are shown below in Tables 3A and 3B. Data are reported as mean±SD (N=3).
# [4] = average for Examples 1 and 3, one run for 2 and 4, read-out: CAD solubility (Prodrug Compounds of the Invention)
# [5] = male, Han Wistar, whole blood, prodrug in blood, Example 3 1 mg/kg 60 minute intravenous infusion, mean±SD (N=3)
# [6] = average of multiple runs, read-out: CAD solubility (Parent Compounds)
# human Nav1.8, sequence (Q9Y5Y9 whole entry): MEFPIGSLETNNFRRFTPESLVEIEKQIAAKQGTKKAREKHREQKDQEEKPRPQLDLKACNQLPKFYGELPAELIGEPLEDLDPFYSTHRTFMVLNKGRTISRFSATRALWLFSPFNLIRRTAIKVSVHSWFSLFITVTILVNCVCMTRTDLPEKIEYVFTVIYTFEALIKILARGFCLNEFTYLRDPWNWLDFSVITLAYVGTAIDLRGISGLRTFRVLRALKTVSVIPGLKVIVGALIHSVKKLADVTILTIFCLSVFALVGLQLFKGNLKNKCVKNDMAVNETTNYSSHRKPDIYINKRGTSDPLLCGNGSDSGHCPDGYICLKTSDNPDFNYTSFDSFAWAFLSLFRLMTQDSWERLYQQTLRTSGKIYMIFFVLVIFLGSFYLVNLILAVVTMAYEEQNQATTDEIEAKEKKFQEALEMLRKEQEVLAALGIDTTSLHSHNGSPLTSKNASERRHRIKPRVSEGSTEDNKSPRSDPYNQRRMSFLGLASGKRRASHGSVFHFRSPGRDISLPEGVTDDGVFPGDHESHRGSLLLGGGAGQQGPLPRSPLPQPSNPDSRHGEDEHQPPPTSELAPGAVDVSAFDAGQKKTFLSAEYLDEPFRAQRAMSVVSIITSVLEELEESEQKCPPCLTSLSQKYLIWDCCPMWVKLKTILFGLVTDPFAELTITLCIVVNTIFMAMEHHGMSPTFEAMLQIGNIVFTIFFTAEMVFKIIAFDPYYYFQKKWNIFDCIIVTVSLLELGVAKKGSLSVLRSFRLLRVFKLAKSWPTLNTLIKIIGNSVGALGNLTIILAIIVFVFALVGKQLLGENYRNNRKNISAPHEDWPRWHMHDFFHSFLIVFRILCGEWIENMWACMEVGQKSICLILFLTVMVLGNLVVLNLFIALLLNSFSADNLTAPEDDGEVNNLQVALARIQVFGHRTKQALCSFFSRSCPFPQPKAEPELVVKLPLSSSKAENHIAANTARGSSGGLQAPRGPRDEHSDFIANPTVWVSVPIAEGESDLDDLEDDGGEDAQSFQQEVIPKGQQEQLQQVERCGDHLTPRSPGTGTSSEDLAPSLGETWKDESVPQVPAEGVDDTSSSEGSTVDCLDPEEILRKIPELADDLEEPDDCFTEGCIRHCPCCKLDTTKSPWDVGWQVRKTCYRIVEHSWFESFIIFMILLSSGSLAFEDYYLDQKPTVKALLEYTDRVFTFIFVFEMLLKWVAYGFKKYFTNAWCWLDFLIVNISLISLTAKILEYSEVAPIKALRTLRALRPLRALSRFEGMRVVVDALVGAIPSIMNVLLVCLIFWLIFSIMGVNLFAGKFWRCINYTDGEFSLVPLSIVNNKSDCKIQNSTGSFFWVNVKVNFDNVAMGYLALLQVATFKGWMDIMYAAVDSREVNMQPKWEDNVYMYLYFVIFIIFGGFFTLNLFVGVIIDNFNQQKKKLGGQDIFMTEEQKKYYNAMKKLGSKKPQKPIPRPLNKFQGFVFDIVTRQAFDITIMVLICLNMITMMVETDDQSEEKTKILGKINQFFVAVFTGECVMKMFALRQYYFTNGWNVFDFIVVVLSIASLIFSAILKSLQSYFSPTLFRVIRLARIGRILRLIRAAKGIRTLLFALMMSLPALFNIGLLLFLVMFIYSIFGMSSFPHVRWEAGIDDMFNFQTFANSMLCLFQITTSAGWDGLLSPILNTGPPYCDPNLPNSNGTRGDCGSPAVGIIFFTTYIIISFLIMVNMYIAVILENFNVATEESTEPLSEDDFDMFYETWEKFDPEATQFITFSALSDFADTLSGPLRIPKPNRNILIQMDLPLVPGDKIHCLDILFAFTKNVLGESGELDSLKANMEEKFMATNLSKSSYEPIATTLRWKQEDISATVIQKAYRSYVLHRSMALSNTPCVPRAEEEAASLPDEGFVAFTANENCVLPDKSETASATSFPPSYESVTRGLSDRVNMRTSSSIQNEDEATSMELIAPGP
"solubility at 1 h [1, 4] [µg/mL]",[Nav1.8] pIC50 (Compounds of the Invention) [2],"solubility at 1 h [1, 6] [µg/mL]",Compound,other results
> 260,6.8,,"Cc1cc(F)ccc1N1CN(c2ccc(=O)n(COP(=O)(O)O)c2C)C(=O)c2cc(C(F)(F)F)ccc21 [Example 1, (5-(1-(4-Fluoro-2-methylphenyl)-4-oxo-6-(trifluoromethyl)-1,4-dihydroquinazolin-3(2H)-yl)-6-methyl-2-oxopyridin-1(2H)-yl)methyl dihydrogen phosphate]",
> 193,6.6,,"Cc1cc(F)ccc1N1CN(c2ccc(=O)n(COP(=O)(O)O)c2C)C(=O)c2ccc(C(F)(F)F)cc21 [Example 2, (5-(1-(4-fluoro-2-methylphenyl)-4-oxo-7-(trifluoromethyl)-1,4-dihydroquinazolin-3(2H)-yl)-6-methyl-2-oxopyridin-1(2H)-yl)methyl dihydrogen phosphate]",
102,6.9,,"Cc1cc(F)ccc1N1CN(c2ccc(=O)n(COP(=O)(O)O)c2C)C(=O)c2cc(Cl)ccc21 [Example 3, (5-(6-chloro-1-(4-fluoro-2-methylphenyl)-4-oxo-1,4-dihydroquinazolin-3(2H)-yl)-6-methyl-2-oxopyridin-1(2H)-yl)methyl dihydrogen phosphate]","AUC(0-inf) [3, 5]: 250 ± 30 ng·h/mL; AUC(0-t) [3, 5]: 240 ± 40 ng·h/mL; Cmax [3, 5]: 260 ± 24 ng/mL; clearance ([3]; male, Han Wistar, whole blood, prodrug, systemic blood clearance, Example 3 1 mg/kg 60 minute intravenous infusion, mean±SD (N=3)): 58 ± 9 mL/min/kg; quantifiable concentrations following oral administration ([3]; prodrug in blood, Example 3 2 mg/kg oral via gastric cannula, text runs over cells r6-r10): There were no"
181,6.1,,"Cc1cc(OC(F)(F)F)ccc1N1CN(c2ccc(=O)n(COP(=O)(O)O)c2C)C(=O)c2cc(C(F)(F)F)cnc21 [Example 4, (6-methyl-5-(1-(2-methyl-4-(trifluoromethoxy)phenyl)-4-oxo-6-(trifluoromethyl)-1,4-dihydropyrido[2,3-d]pyrimidin-3(2H)-yl)-2-oxopyridin-1(2H)-yl)methyl dihydrogen phosphate]",
,,48,"Cc1cc(F)ccc1N1CN(c2ccc(=O)[nH]c2C)C(=O)c2cc(C(F)(F)F)ccc21 [Parent Compound 1A, 1-(4-fluoro-2-methylphenyl)-3-(2-methyl-6-oxo-1,6-dihydropyridin-3-yl)-6-(trifluoromethyl)-2,3-dihydroquinazolin-4(1H)-one]",[Nav1.8] pIC50 (Parent Compounds) [2]: 8
,,51,"Cc1cc(F)ccc1N1CN(c2ccc(=O)[nH]c2C)C(=O)c2ccc(C(F)(F)F)cc21 [Parent Compound 2A, 1-(4-fluoro-2-methylphenyl)-3-(2-methyl-6-oxo-1,6-dihydropyridin-3-yl)-7-(trifluoromethyl)-2,3-dihydroquinazolin-4(1H)-one]",
,,54,"Cc1cc(F)ccc1N1CN(c2ccc(=O)[nH]c2C)C(=O)c2cc(Cl)ccc21 [Parent Compound 3A, 6-chloro-1-(4-fluoro-2-methylphenyl)-3-(2-methyl-6-oxo-1,6-dihydropyridin-3-yl)-2,3-dihydroquinazolin-4(1H)-one]",
,,87,"Cc1cc(OC(F)(F)F)ccc1N1CN(c2ccc(=O)[nH]c2C)C(=O)c2cc(C(F)(F)F)cnc21 [Parent Compound 4A, 1-(2-methyl-4-(trifluoromethoxy)phenyl)-3-(2-methyl-6-oxo-1,6-dihydropyridin-3-yl)-6-(trifluoromethyl)-2,3-dihydropyrido[2,3-d]pyrimidin-4(1H)-one]",[Nav1.8] pIC50 (Parent Compounds) [2]: 7.5
